Structures can show the parent of a compound that is named as a salt. Where two headings read alike, the source gives them in different places.
Columns and labels:
[1] = test system: cardiomyocytes derived from hiPSCs from a LQTS3 patient
[2] = test system: cardiomyocytes derived from hiPSCs from a LQTS3 patient; assay: cells; conditions: Homo sapiens, Cardiomyocyte; for IC50: read-out: LQT-IC50 (uM)-Shortening
[3] = test system: normal human induced pluripotent stem cell (hiPSC) cardiomyocyte; conditions: for WT-Fold Prolongation: APD; for WT-Fold Prolongation / Cessation of Beating / WT-EAD Dose / WT-Prolongation Dose: normal hiPSC cardiomyocytes
[4] = read-out: LQT-EC50 (μM) Shortening, LQT-3 cardiomyocytes, AP shortening
[5] = WT cardiomyocytes, AP prolongation
[6] = LQT-3 cardiomyocytes, cessation of beating

Row | Compound | LQT-Cessation Dose ([1]; LQT3 cardiomyocytes) | LQT-Fold Shortening ([1]; LQT3 cardiomyocytes) | IC50 [2] [µM] | WT-Fold Prolongation [3] | Cessation of Beating [3] | WT-EAD Dose [3] [µM] | WT-Prolongation Dose [3] | further results
1 | CCCCNC(C)COc1c(C)cccc1C (stereo not shown) [Compound 39, 1-(2,6-dimethylphenoxy)-N-butylpropan-2-amine] | 66 µM | 1.180 | 0.73 | 3.827 | 133 µM | 66 | – | –
2 | NC(COc1ncccc1C(F)(F)F)c1ccccc1 (stereo not shown) [Compound 96, 1-phenyl-2-((3-(trifluoromethyl)pyridin-2-yl)oxy)ethan-1-amine] | None | 1.3 | – | 1.163 | None | – | – | LQT-Fold Shortening ([1]; pyridyl derivatives): 1.358; LQT-Shortening Dose ([1]; pyridyl derivatives): 133 µM; EC50 ([2]; read-out: LQT-EC50 (μM) Shortening, pyridyl derivatives): 20.7 µM; WT-Cessation Dose ([3]; pyridyl derivatives): No cessation of beating; WT-EC50 (μM) Prolongation ([3]; pyridyl derivatives): Does Not Prolong AP
3 | Cc1ccc(OCC(N)c2ccccc2)cn1 (stereo not shown) [Compound 114] | – | – | – | – | – | – | – | LQT-Fold Shortening ([1]; LQT-3 cardiomyocytes): 1.233; EC50 [2, 4]: 67.5 µM; WT-EC50 (μM) Prolongation [3, 5]: Does Not Prolong AP; WT-Cessation Dose (μM) ([3]; WT cardiomyocytes, cessation of beating): No cessation of beating
4 | CC(N)COc1cccc(C(F)(F)F)c1.Cl (stereo not shown) [Compound 85] | 200 µM | 1.661 | 31.3 | None | 200 µM | – | None | –
5 | COc1ccccc1OCC(N)c1ccccc1 (stereo not shown) [Compound 26, 2-(2-methoxyphenoxy)-1-phenylethanamine] | 133 µM | 1.482 | 0.13 | 2.502 | 22 µM | 7.4 | – | –
6 | COCCNC(C)COc1c(C)cccc1C (stereo not shown) [Compound 40, 1-(2,6-dimethylphenoxy)-N-methoxy-ethyl-2-amine] | None | 1.267 | 2.31 | 4.366 | None | 66 | 32 µM | LQT-Shortening Dose ([1]; LQT3 cardiomyocytes): 7.4 µM
7 | COCCNC(COc1c(C)ccnc1C)c1ccccc1 (stereo not shown) [Compound 122] | – | – | – | – | – | – | – | LQT-Fold Shortening ([1]; LQT-3 cardiomyocytes): 1.188; EC50 [2, 4]: 46.6 µM; WT-EC50 (μM) Prolongation [3, 5]: Does Not Prolong AP
8 | NC(COc1ccc2ccccc2c1)c1ccccc1 (stereo not shown) [Compound 130] | – | – | – | – | – | – | – | LQT-Fold Shortening ([1]; LQT-3 cardiomyocytes): 1.459; LQT-Cessation Dose [1, 6]: 133 µM; EC50 [2, 4]: 8.7 µM; WT-EC50 (μM) Prolongation [3, 5]: Does Not Prolong AP
9 | Cl.NC(COc1cccc(C(F)(F)F)c1)c1ccccc1 (stereo not shown) [Compound 81, 1-phenyl-2-(3-(trifluoromethyl)phenoxy)ethan-1-amine] | 66 µM | 1.539 | 4.07 | None | 66 µM | – | None | –
10 | CCCc1ccccc1OCC(C)N (stereo not shown) [Compound 49, 1-(2-Propylphenoxy)propan-2-amine] | 133 µM | 1.192 | 0.85 | 1.385 | 200 µM | – | – | –
11 | CCCCNC(COc1cccc(C)c1C)c1ccccc1 (stereo not shown) [Compound 30, 2-(2,3-dimethylphenoxy)-N-butyl-1-phenylethanamine] | 200 µM | 1.423 | 20.2 | None | 133 µM | – | None | –
12 | CCCc1ccccc1OCC(N)c1ccccc1 (stereo not shown) [Compound 23, 1-phenyl-2-(2-propylphenoxy)ethanamine] | 22 µM | 1.32 | 0.78 | None | 22 µM | – | None | –
13 | Cc1cccc(C)c1OCC(NC(=O)c1ccccc1)c1ccccc1 (stereo not shown) [Compound 29, N-(2-(2,6-dimethylphenoxy)-1-phenylethyl)benzamide] | None | 1.64 | > 0.8 | None | None | – | None | –
14 | Cc1cc(C)cc(OC[C@H](N)C2CC2)c1.Cl [Compound 63] | 200 µM | 1.11 | 7.5 | 1.577 | None | 66 | – | –
15 | Cc1ccc(OCC(N)C2CC2)c(C)c1.Cl (stereo not shown) [Compound 65] | 200 µM | 1.119 | 1.36 | 2.12 | 200 µM | 66 | – | –
16 | Cc1cccc(Cl)c1OC[C@H](C)N [Compound 57, (S)-1-(2-chloro-6-methylphenoxy)propan-2-amine hydrochloride] | None | 1.14 | 0.19 | 3.615 | None | 200 | – | –
17 | Cc1cccc(C)c1OCC(C)NC(=O)c1ccccc1 (stereo not shown) [Compound 54] | 133 µM | 1.45 | 57.8 | None | 66 µM | – | None | –
18 | Cc1cccc(OCC(O)c2ccccc2)c1C (stereo not shown) [Compound 32, 2-(2,3-dimethylphenoxy)-1-phenylethanol] | 66 µM | 1.355 | 7.53 | None | 133 µM | – | None | –
19 | Cc1cccc(C)c1OCC(N)c1ccc2ccccc2c1 (stereo not shown) [Compound 131] | – | – | – | – | – | – | – | LQT-Fold Shortening ([1]; LQT-3 cardiomyocytes): 1.309; LQT-Cessation Dose [1, 6]: 133 µM; EC50 [2, 4]: 4.73 µM; WT-EC50 (μM) Prolongation [3, 5]: Does Not Prolong AP
